Test results published in patent US20020120098A1, “Enhanced stimulation of erythropoiesis” (priority 1996, published 2002).

Key:
erythroid progenitors = assay: Colony formation assay (CFA), cord blood LDMNC: erythroid progenitor colonies overall; type: cell-based, human; settings: for growth of erythroid progenitor colonies in the absence of Epo: 0 U/ml Epo; for size and colour of erythroid colonies: 2 and 0.2 U/ml Epo, ambient or 5% O2, 1.0 mg/ml HAo or HEMOLINK, 100 μM hemin, day 14
Experimental: This technique, referred to as the colony formation assay (CFA), is the most widely used biological assay to identify and enumerate erythroid progenitors present in hematopoietic tissue such as blood and bone marrow. Cell populations containing erythroid progenitors are plated in semi-solid suspensions of methyl cellulose, agar, low melting agarose or related substances in nutrient culture medium containing 1-3 U/ml Epo and 10 ng/ml IL-3 to specifically stimulate erythroid progenitors. Plates are incubated at 37° C. for 14 days during which time the erythroid progenitors form characteristic hemoglobinized (red) colonies. Two distinct but related erythroid progenitors can be distinguished based on colony size and morphology: BFU-E, the most primitive recognizable erythroid progenitor forms large multilobular colonies whereas the more mature CFU-E forms smaller spherical colonies.
Adult hemoglobin was purified according to U.S Pat. Nos. 5,439,591 and 5,545,328 to obtain HAo and HEMOLINK™ was prepared from HAo according to U.S. Pat. No. 5,532,352. Human umbilical cord blood intended for discard was collected from the umbilical vein of placentas immediately postpartum into 10 ml vacutainer tubes containing 143 USP units/ml sodium heparin. Low density mononuclear cells were separated from red blood cells by centrifugation over a 1.077 g/ml density gradient Cells removed from the plasma/density gradient interface were incubated overnight in a tissue culture flask with 10 ml cell culture medium containing 10% fetal bovine serum, and non-adherent LDMNC were further purified with an additional density gradient step. The LDMNC were then plated into colony formation assays (CFA) on the second day of isolation. In the CFA, LDMNC were plated at a density of 1×10^5 cells/ml in Iscoves modified Dulbeccos cell culture medium containing 0.8% methyl-cellulose, 30% fetal bovine serum, 1% bovine serum albumin, 0.1 mM 2-mercaptoethanol and 2 mM L-glutamine. Unless indicated otherwise, under standard CFA conditions 2 U/ml Epo and 10 ng/ml IL-3 are added to the formulation to stimulate hematopoietic progenitor growth, specifically BFU-E, CFU-E and CFU-GM.
Each condition was tested in duplicate in from 2-18 independent experiments. Cultures were maintained in a humidified incubator at 37° C., 5% CO2 and ambient oxygen tensions. The number of hematopoietic progenitors was scored between days 13-15 by counting the number and types of colonies present.
Erythroid progenitor colony formation assays were conducted as described in Example 1 except that cultures were incubated at either ambient oxygen tensions (˜20% O2) or 5% O2. The reduced oxygen tension of 5% O2 approximates the physiological intravascular oxygen tension in mammals. The mean fold increase in cord blood BFU-E, CFU-E and CFU-GM progenitor number at 5% O2 produced by 1.0 mg/ml HAo (15.6 μM; n=11) or HEMOLINK™ (15.6 μM; n=6), 100 μM hemin (n=10), 250 μM FeCl3 (n=6) or no addition (n=17-18), is shown FIG. 2. Results are expressed relative to control cells treated only with respective vehicles and cultured at ambient oxygen tensions (˜20% O2; fold expansion=1.0; *p<0.05, **p<0.01).
Erythroid progenitor colony formation assays were conducted as described in Example 1 except that cultures were initiated in the presence of Epo concentrations ranging from 0-2 U/ml. The mean fold increase in cord blood BFU-E, CFU-E and CFU-GM progenitor number produced by 1.0 mg/ml HAo (15.6 μM; n=9) or HEMOLINK™ (15.6 μM; n=6), 100 μM hemin (n=8), 250 μM FeCl3 (n=6), or no addition (n=9-10) in the presence of reduced Epo concentrations (0.2 U/ml) is shown in FIG. 3. Cultures were maintained at ambient oxygen tensions (˜20% O2) for 14 days. Results are expressed relative to control cells at 2 U/ml Epo treated only with the respective vehicles (solid line at fold expansion=1.0; *p<0.05, **p<0 01). Erythroid progenitor colonies were undetectable in the absence of Epo. […]

BFU-E = assay: Colony formation assay, adult peripheral blood LDMNC: BFU-E; type: cell-based, human; settings: for fold increase in BFU-E, adult blood, 0.2 U/ml Epo: ~20% O2, compared to untreated controls (no addition) at 0.2 U/ml Epo
Experimental: Blood was collected with informed consent from the antecubital vein of healthy adult human volunteers into vacutainers containing 143 USP U/ml sodium heparin. Low density mononuclear cells (LDMNC) were isolated by centrifugation over a density gradient as described in Example 1. Plastic adherent cells were removed by an overnight incubation in a tissue culture flask and the non-adherent cells were placed directly in a CFA. Conditions for the CFA are similar to those described in Examples 1-4.
The mean fold increase in adult blood BFU-E, CFU-E and CFU-GM progenitor number produced by 1.0 mg/ml HAo (15.6 μM) or HEMOLINK™ (15.6 μM), 100 μM hemin or 250 μM FeCl3 is shown in FIG. 9 (n=3). Cultures were maintained at ambient oxygen tensions (˜20% O2) for 14 days. The fold increase in colonies is expressed relative to control cells treated only with the respective vehicles. […] The magnitude of this increase was greater for adult than cord blood LDMNC.
The mean fold increase in adult blood BFU-E, CFU-E and CFU-GM progenitor number at 5% O2 is shown in FIG. 10 with the same additives. Results are expressed relative to control cells treated only with the respective vehicles and cultured at ambient oxygen tensions (˜20% O2). Reduced oxygen tensions (5% O)2 enhanced the growth of BFU-E which was further increased by the addition of HAo, HEMOLINK™, hemin or FeCl3. All agents stimulated a similar increase in BFU-E number (˜9-11-fold) at 5% O2 compared to untreated control cells at ambient oxygen tensions.
Mean fold increase in adult blood BFU-E, CFU-E and CFU-GM progenitor number in the presence of reduced Epo (0.2 U/ml) (n=3) at 20% O2 is shown in FIG. 11 with and without (no addition) the additives used in FIG. 9. Results are expressed relative to control cells at 2 U/ml Epo treated only with the respective vehicles (solid line at fold expansion=1.0). […] As with cord blood, CFU-GM numbers were unaffected by reductions in Epo. The addition of HAo or HEMOLINK™ to CFAs containing 0.2 U/ml Epo stimulated ˜4.5- and ˜3.5-fold increases in BFU-E and CFU-E, respectively, compared to untreated controls (no addition), restoring the progenitor number to that obtained at 2 U/ml Epo. Hemin stimulated the greatest increase in BFU-E and CFU-E (˜9- and ˜6-fold, respectively) at 0.2 U/ml Epo versus the untreated controls (no addition). FeCl3 stimulated only a ˜2-fold increase in erythroid progenitor number at 0.2 U/ml Epo.
Mean fold increase in adult blood BFU-E, CFU-E and CFU-GM progenitor number at 5% O2 in the presence of reduced Epo (0.2 U/ml) (n=3) is shown in FIG. 12 with and without the additives used in FIG. 9. […]

Compound	number of erythroid colonies at 0.2 U/ml Epo and 5% O2 (in words) (erythroid progenitors; 5% O2, 0.2 U/ml Epo, 250 μM FeCl3)	fold expansion of erythroid progenitors at 5% O2 (in words) (erythroid progenitors; 5% O2, 2 U/ml Epo, 250 μM FeCl3)	fold increase in BFU-E, adult blood, ambient O2 (BFU-E; 2 U/ml Epo, ambient O2, 1.0 mg/ml HAo or HEMOLINK, 100 μM hemin, 250 μM FeCl3, vs vehicle controls) [fold]	growth of erythroid progenitor colonies in the absence of Epo (erythroid progenitors)	size and colour of erythroid colonies (erythroid progenitors)	fold increase in BFU-E, adult blood, 0.2 U/ml Epo (BFU-E) [fold]	concentration at which significant stimulation of erythroid progenitor colony formation is observed (erythroid progenitors; 2 U/ml Epo, ambient O2) [µM]
[Cl][Fe]([Cl])[Cl] [FeCl3]	did not significantly increase the number of erythroid colonies	did not increase the fold expansion of erythroid progenitors beyond that of the untreated controls at 5% O2	< 3	–	–	–	–
HEMOLINK™: chemically crosslinked hemoglobin prepared by treating human hemoglobin with a polyaldehyde (O-raffinose)	–	–	–	could not support the growth of erythroid progenitor colonies in the absence of Epo	larger and redder	~4.5	–
C=CC1=C(C)C2=Cc3c(C=C)c(C)c4[n]3[Fe-2]35([Cl])[n]6c(c(C)c(CCC(=O)O)c6=CC6=[N+]3C(=C4)C(C)=C6CCC(=O)O)=CC1=[N+]25 [hemin]	–	–	–	could not support the growth of erythroid progenitor colonies in the absence of Epo	mostly smaller and less red in color	~9	–
HAo: adult human hemoglobin obtained from red blood cells and purified by displacement chromatography; uncross linked product	–	–	–	could not support the growth of erythroid progenitor colonies in the absence of Epo	larger and redder	~4.5	7.8
